The values below come from patent US20220002280A1, “COMPOUNDS AND METHODS OF USE” (Ferro Therapeutics, Inc., priority 2019, published 2022).

A word on the IC50: it is the point on the concentration scale where inhibition reaches its midpoint. High values mean a need for much substance, low ones inhibition by little substance.

Each structure is given as a SMILES string.

Common to all, as to assay type: cell-based, human
The test system of one assay is 786-O. The assay is described as follows: Cell proliferation (Alamar Blue) assay, 786-O. To be noted: Homo sapiens, 786-0, 24 h, 786-O cells, 24 h treatment. How it is done:
(§1) A cell viability assay was performed to assess the potency of the compounds in human cancer cell lines 786-0 (renal cell carcinoma), SJSA-1 (osteosarcoma), and/or A431 (epidermoid carcinoma). Additional cell lines, such as pancreatic cancer cell lines (e.g., Panc 02.13, BxPC-3, Panc 12, Panc 02.03, Panc 6.03, PSN-1, HPAC, and Capan-1), prostate cancer cell lines (e.g., PC-3, DU145, 22Rv1, NCI-H660, BPH1, LNCaP, BM-1604, and MDA PCa 2b), etc., can be tested in a similar method.
(§2) Cells (SJSA-1, 786-0 and/or A431) were seeded (5000 cells/100 μL/well) in 96-well tissue culture plate and incubated at 37° C./5% CO2 for 16-24 hours. The cells were then treated with compounds (25 μL of 5×). The compound concentrations were 10-0.0005 μM prepared in 3-fold serial dilutions with final DMSO concentration of 1%. The plates were then incubated for 24h at 37° C./5% CO2 in a moist environment. Then Alamar Blue™ reagent (final concentration 1×-12.5 μL) was added to each well and incubated for 1.5 hours at 37° C./5% CO2. The plates were read on fluorescence reader at 540 nm excitation and 590 nm emission wavelengths. The IC50 values were subsequently determined using a sigmoidal dose-response curve (variable slope) in GraphPad Prism® 5 software.
A general note: The colour change of resazurin is a common sign of viable cells or microbes.

The test system of the next assay is SJSA-1. Nature of the assay: Cell proliferation (Alamar Blue) assay, SJSA-1. To be noted: Homo sapiens, SJSA-1 cells, 24 h treatment. The procedure:
as §1, §2

A further assay deals with A431. Nature of the assay: Cell proliferation (Alamar Blue) assay, A431. To be noted: Homo sapiens, A-431, A431 cells, 24 h treatment. The procedure:
as §1, §2

In the case of `C#CC(=O)N1C(c2ccnc(C)c2)c2ccc(OC)cc2C[C@@H]1CCCC` (stereo in doubt) [Compound 48, 1-((1S,3S)-3-butyl-6-methoxy-1-(2-methylpyridin-4-yl)-3,4-dihydroisoquinolin-2(1H)-yl)prop-2-yn-1-one], the IC50 with 786-O came to 0.053 µM; with SJSA-1 it was 0.05 µM; in the assay on A431, 5 µM.
Take `C[C@H]1Cc2ccccc2C(c2ccc(N3CCOCC3)cc2)N1C(=O)CCl` (stereo partly drawn) [Compound 1, 2-chloro-1-((3S)-3-methyl-1-(4-morpholinophenyl)-3,4-dihydroisoquinolin-2(1H)-yl)ethan-1-one]: the IC50 came out at 2 µM in the assay on 786-O and 2.8 µM with SJSA-1.
On to `COC(=O)c1ccc([C@@H]2c3ccccc3C[C@H](C(=O)OC)N2C(=O)CCl)cc1` [Compound 2, methyl (1R,3R)-2-(2-chloroacetyl)-1-(4-(methoxycarbonyl)phenyl)-1,2,3,4-tetrahydroisoquinoline-3-carboxylate], for which the IC50 in the assay with 786-O stood at 0.742 µM; in the assay on SJSA-1 it was 0.855 µM; in the assay with A431 it was 8.7 µM.
The corresponding values for `COC(=O)c1ccc([C@H]2c3ccccc3C[C@H](C(=O)OC)N2C(=O)CCl)cc1` [Compound 3, methyl (1S,3R)-2-(2-chloroacetyl)-1-(4-(methoxycarbonyl)phenyl)-1,2,3,4-tetrahydroisoquinoline-3-carboxylate] are 0.512 µM, 0.736 µM and over 10 µM.
As for `COC(=O)c1ccc([C@@H]2c3ccc(OC)cc3C[C@H](C)N2C(=O)CCl)cc1` [Compound 6, methyl 4-((1R,3S)-2-(2-chloroacetyl)-6-methoxy-3-methyl-1,2,3,4-tetrahydroisoquinolin-1-yl)benzoate], the half-inhibitory concentration (IC50) in the assay on 786-O was 3 µM; in the assay with SJSA-1 it was 3.2 µM; in the assay on A431, over 10 µM.
Turning to `COC(=O)c1ccc([C@H]2c3ccc(OC)cc3C[C@H](C)N2C(=O)CCl)cc1` [Compound 7, methyl 4-((1S,3S)-2-(2-chloroacetyl)-6-methoxy-3-methyl-1,2,3,4-tetrahydroisoquinolin-1-yl)benzoate], the IC50 in the assay with 786-O stood at 0.137 µM; in the assay with SJSA-1, 0.22 µM; in the assay on A431, 7.8 µM.
With `C#CC(=O)N1[C@H](c2ccc(F)cc2)c2ccc(OC)cc2C[C@@H]1C` [Compound 10], the IC50 in the assay on 786-O was 0.164 µM; with SJSA-1 it was 0.278 µM; with A431 it was 8.6 µM.
As to `CCCC[C@H]1Cc2cc(OC)ccc2[C@H](c2ccc(F)cc2)N1C(=O)CCl` [Compound 11, 1-((1S,3S)-3-butyl-1-(4-fluorophenyl)-6-methoxy-3,4-dihydroisoquinolin-2(1H)-yl)-2-chloroethan-1-one], the IC50 with 786-O was 0.016 µM; in the assay on SJSA-1, 0.018 µM; in the assay on A431, over 10 µM.
On to `CCCC[C@H]1Cc2cc(OC)ccc2[C@H](c2ccc(C(=O)NC3CCC3)cc2)N1C(=O)CCl` [Compound 13, 4-((1S,3S)-3-butyl-2-(2-chloroacetyl)-6-methoxy-1,2,3,4-tetrahydroisoquinolin-1-yl)-N-cyclobutylbenzamide], for which the IC50 in the assay on 786-O turned out to be 0.002 µM; with SJSA-1, 0.005 µM; in the assay with A431, 3.6 µM.
Turning to `C#CC(=O)N1[C@@H](CCCC)Cc2cc(OC)ccc2[C@@H]1c1ccc(C(=O)NCCOC)cc1` [Compound 14, 4-((1S,3S)-3-butyl-6-methoxy-2-propioloyl-1,2,3,4-tetrahydroisoquinolin-1-yl)-N-(2 methoxyethyl)benzamide], the IC50 with 786-O amounted to 0.024 µM; in the assay on SJSA-1 it was 0.07 µM; with A431, 7.6 µM.
Consider `C#CC(=O)N1[C@@H](CCCC)Cc2cc(OC)ccc2[C@@H]1c1ccc(C(=O)NC2CCC2)nc1` [Compound 15, 5-((1R,3S)-3-butyl-6-methoxy-2-propioloyl-1,2,3,4-tetrahydroisoquinolin-1-yl)-N-cyclobutylpicolinamide], for which the IC50 in the assay with 786-O amounted to 0.01 µM; with SJSA-1, 0.018 µM; with A431 it was 3.5 µM.
The corresponding values for `C#CC(=O)N1[C@@H](CCCC)Cc2cc(OC)ccc2[C@@H]1c1ccc(S(=O)(=O)NC2CCC2)cc1` [Compound 18, 4-((1S,3S)-3-butyl-6-methoxy-2-propioloyl-1,2,3,4-tetrahydroisoquinolin-1-yl)-N-cyclobutylbenzenesulfonamide] are 0.004 µM, 0.008 µM and 8.9 µM.
The corresponding values for `CCCC[C@H]1Cc2cc(OC)ccc2[C@H](c2ccc(NC34CC5CC(CC(C5)C3)C4)cc2)N1C(=O)CCl` [Compound 27, 1-((1S,3S)-1-(4-(((3R,5R,7R)-adamantan-1-yl)amino)phenyl)-3-butyl-6-methoxy-3,4-dihydroisoquinolin-2(1H)-yl)-2-chloroethan-1-one] are 0.004 µM, 0.006 µM and 8.4 µM.
`COc1ccc2c(c1)C[C@H](C)N(C(=O)CCl)[C@H]2c1ccc(N2CCOCC2)cc1` [Compound 33] displayed an IC50 in the assay on 786-O of 0.259 µM.
Same read-out and setting: then `COC(=O)c1ccc([C@H]2c3cc(OC)c(OC)cc3C[C@H](C)N2C(=O)CCl)cc1` [Compound 34], with 0.592 µM.
In the assay with SJSA-1, `COC(=O)c1ccc([C@H]2c3ccccc3C[C@H](C)N2C(=O)CCl)cc1` [Compound 35] displayed an IC50 of 2.56 µM.
On to `C#CC(=O)N1[C@@H](CCCC)Cc2cc(OC)ccc2[C@@H]1c1ccc(C(=O)NC23CC4CC(CC(C4)C2)C3)cc1` [Compound 38, N-((3R,5R,7R)-adamantan-1-yl)-4-((1S,3S)-3-butyl-6-methoxy-2-propioloyl-1,2,3,4-tetrahydroisoquinolin-1-yl)benzamide], for which the IC50 in the assay on 786-O was determined as 0.005 µM; in the assay with SJSA-1 it was 0.01 µM; with A431 it was 10 µM.
As for `C#CC(=O)N1[C@@H](CCCC)Cc2cc(OC)ccc2[C@@H]1C1CCCCC1` [Compound 39, 1-((1S,3S)-3-butyl-1-cyclohexyl-6-methoxy-3,4-dihydroisoquinolin-2(1H)-yl)prop-2-yn-1-one], the IC50 in the assay on 786-O was 0.158 µM; in the assay with SJSA-1, 0.17 µM; in the assay on A431 it was over 10 µM.
`C#CC(=O)N1[C@@H](CCCC)Cc2cc(OC)ccc2[C@@H]1c1ccccn1` [Compound 49, 1-((1R,3S)-3-butyl-6-methoxy-1-(pyridin-2-yl)-3,4-dihydroisoquinolin-2(1H)-yl)prop-2-yn-1-one]: the values for the IC50 with 786-O, in the assay on SJSA-1 and in the assay with A431 were 0.023 µM, 0.04 µM and 6.6 µM, respectively.
The corresponding values for `C#CC(=O)N1[C@@H](CCCC)Cc2cc(OC)ccc2[C@@H]1c1ccn(C)n1` [Compound 50, 1-[(1R,3S)-3-butyl-6-methoxy-1-(1-methyl-1H-pyrazol-3-yl)-1,2,3,4-tetrahydroisoquinolin-2-yl]prop-2-yn-1-one] are 0.065 µM, 0.101 µM and over 10 µM.
Take `C#CC(=O)N1[C@@H](CCCC)Cc2cc(OC)ccc2[C@@H]1C1CCN(C)CC1` [Compound 54, 1-((3S)-3-butyl-6-methoxy-1-(1-methylpiperidin-4-yl)-3,4-dihydroisoquinolin-2(1H)-yl)prop-2-yn-1-one]: the IC50 in the assay on 786-O was found to be 0.743 µM; in the assay with SJSA-1, 0.659 µM; with A431, 5.8 µM.
The corresponding values for `C#CC(=O)N1[C@@H](CCCC)Cc2cc(OC)ccc2[C@@H]1c1ccc(-c2nc(C)no2)cc1` [Compound 55, 1-((1S,3S)-3-butyl-6-methoxy-1-(4-(3-methyl-1,2,4-oxadiazol-5-yl)phenyl)-3,4-dihydroisoquinolin-2(1H)-yl)prop-2-yn-1-one] are 0.027 µM, 0.032 µM and 2.3 µM.
The corresponding values for `C#CC(=O)N1[C@@H](CCCC)Cc2cc(OC)ccc2[C@@H]1C12CC(N)(C1)C2` [Compound 76, 1-((1S,3S)-1-(3-aminobicyclo[1.1.1]pentan-1-yl)-3-butyl-6-methoxy-3,4-dihydroisoquinolin-2(1H)-yl)prop-2-yn-1-one] are 0.187 µM, 0.623 µM and over 10 µM.
The corresponding values for `C#CC(=O)N1[C@@H](CCCC)Cc2cc(OC)ccc2[C@@H]1c1ccc(Nc2cccnc2)cc1` [Compound 94, 1-[(1S,3S)-3-butyl-6-methoxy-1-{4-[(pyridin-3-yl)amino]phenyl}-1,2,3,4-tetrahydroisoquinolin-2-yl]prop-2-yn-1-one] are 0.108 µM, 0.047 µM and over 10 µM.
With `C#CC(=O)N1[C@@H](CCCC)Cc2cc(OC)ccc2[C@@H]1c1ccc(NC(=O)c2ccnc(C)c2)cc1` [Compound 95, N-{4-[(1S,3S)-3-butyl-6-methoxy-2-(prop-2-ynoyl)-1,2,3,4-tetrahydroisoquinolin-1-yl]phenyl}-2-methylpyridine-4-carboxamide], the IC50 was 0.037 µM in the assay with 786-O, 0.2 µM in the assay with SJSA-1 and over 10 µM in the assay on A431.
